SMILES strings stand for the structures.

For the first assay, the system named is NL-RLuc virus. Briefly: Inhibition of HIV replication (NL-RLuc virus, luciferase readout in MT-2 cells). In kind it is cell-based. As to conditions: Human immunodeficiency virus 1, MT2, 120 h, MT-2 cells infected with NL-RLuc virus, 5 days of incubation, 10% FBS, at least 2 experiments. The source says: Inhibition of HIV Replication:
A recombinant NL-RLuc proviral clone was constructed in which a section of the nef gene form NL4-3 was replaced with the Renilla Luciferase gene. This virus is fully infectious and can undergo multiple cycles of replication in cell culture. In addition, the luciferous reporter provides a simple and easy method for quantitating the extent of virus growth and consequently, the antiviral activity of test compounds. The plasmid pNLRLuc contains the proviral NL-Rluc DNA cloned into pUC18 at the PvuII site. The NL-RLuc virus was prepared by transfection of 293T cells with the plasmid pNLRLuc. Transfections were performed using the LipofectAMINE PLUS kit form Invitrogen (Carlsbad, Calif.) according to the manufacturer and the virus generated was titered in MT-2 cells. For susceptibility analyses, the titrated virus was used to infect MT-2 cells in the presence of compound, and after 5 days of incubation, cells were processed and quantitated for virus growth by the amount of expressed luciferase. Assay media was RPMI 1640 supplemented with 10% heat inactivated fetal bovine serum (FBS), 100 units/ml penicillin G/100 units/ml streptomycin, 10 mM HEPES buffer pH 7.55 and 2 mM L-glutamine. The results form at least 2 experiments were used to calculate the EC50 values. Luciferase was quantitated using the Dual Luciferase kit form Promega (Madison, Wis.). Susceptibility of viruses to compounds was determined by incubation in the presence of serial dilutions of the compound. The 50% effective concentration (EC50) was calculated by using the exponential form of the median effect equation where (Fa)=1/[1+(ED50/drug conc.)^m](Johnson V A, Byington R T. Infectivity Assay. In Techniques in HIV Research. ed. Aldovini A, Walker B D. 71-76. New York: Stockton Press. 1990).
For the compound `Cc1nc(-n2cncc2C)c(-c2ccc(OCCc3ccc(F)cc3)cc2)c(N2CCC(C)(C)CC2)c1[C@H](OC(C)(C)C)C(=O)O` (single isomer, unassigned) [Example 55], a half-maximal response (EC50) required 3 nM.

`Cc1cn(-c2nc(C)c([C@H](OC(C)(C)C)C(=O)O)c(N3CCC(C)(C)CC3)c2-c2ccc(OCCc3ccc(F)cc3)cc2)cn1` (single isomer, unassigned) [Example 56]: it took 2 nM to reach a half-maximal effect (EC50).

In the case of `Cc1nc(N)c(-c2ccc(OCCc3ccc(F)cc3)c(F)c2F)c(N2CCC(C)(C)CC2)c1[C@H](OC(C)(C)C)C(=O)O` (single isomer, unassigned) [Example 70], a half-maximal response (EC50) required 2 nM.

For the compound `Cc1nc(C(C)O)c(-c2ccc(OCCc3ccc(F)cc3)c(F)c2)c(N2CCC(C)(C)CC2)c1[C@H](OC(C)(C)C)C(=O)O` (single isomer, unassigned) [Example 236], the EC50 worked out at 2 nM.

`Cc1nc(C(C)(C)O)c(-c2ccc(OCCc3ccc(F)cc3)c(F)c2)c(N2CCC(C)(C)CC2)c1[C@H](OC(C)(C)C)C(=O)O` (single isomer, unassigned) [Example 242]: the EC50 is 5 nM. Against the preceding compound, the EC50 is about 2.5-fold higher.

On to `Cc1ncc(-c2ccc(F)nc2OCCc2ccc(F)cc2)c(N2CCC(C)(C)CC2)c1[C@H](OC(C)(C)C)C(=O)O` (single isomer, unassigned) [Example 262], for which the EC50 was 1130 nM. Compared with the last compound, the EC50 is about 230-fold higher.

In turn, `Cc1ncc(-c2ccc(OCCc3ccc(F)cc3)nc2F)c(N2CCC(C)(C)CC2)c1[C@H](OC(C)(C)C)C(=O)O` (single isomer, unassigned) [Example 263] returned an EC50 of 3 nM.

Consider `Cc1ncc(-c2ccc(OCC(C)C)nc2)c(N2CCC(C)(C)CC2)c1C(OC(C)(C)C)C(=O)O` (stereo in doubt) [Example 409, (S)-2-(tert-butoxy)-2-(4-(4,4-dimethylpiperidin-1-yl)-6′-isobutoxy-6-methyl-[3,3′-bipyridin]-5-yl)acetic acid], for which the midpoint of the response, the EC50, lay at 1 nM.

Consider `C=Cc1nc(C)c(-c2ccc(OCCc3ccc(F)cc3)cc2)c(N2CCC(C)(C)CC2)c1[C@H](OC(C)(C)C)C(=O)O` [Example 1, (S)-2-(tert-Butoxy)-2-(4-(4,4-dimethylpiperidin-1-yl)-5-(4-(4-fluorophenethoxy)phenyl)-6-methyl-2-vinylpyridin-3-yl)acetic acid], for which it took 20 nM to reach a half-maximal effect (EC50). This EC50 lies about 20-fold higher than the previous one.

As to `Cc1nc(N)c([C@H](OC(C)(C)C)C(=O)O)c(N2CCC(C)(C)CC2)c1-c1ccc(OCCc2ccc(F)cc2)cc1` [Example 2, (S)-2-(2-Amino-4-(4,4-dimethylpiperidin-1-yl)-5-(4-(4-fluorophenethoxy)phenyl)-6-methylpyridin-3-yl)-2-(tert-butoxy)acetic acid], the response was half-maximal at 5 nM (EC50).

For the compound `COc1nc(C)c(-c2ccc(OCCc3ccc(F)cc3)cc2)c(N2CCC(C)(C)CC2)c1[C@H](OC(C)(C)C)C(=O)O` [Example 3, (S)-2-(tert-Butoxy)-2-(4-(4,4-dimethylpiperidin-1-yl)-5-(4-(4-fluorophenethoxy)phenyl)-2-methoxy-6-methylpyridin-3-yl)acetic acid], the EC50 came to 8 nM. Against the preceding compound, the EC50 is about 1.6-fold higher.

On to `Cc1[nH]c(=O)c([C@H](OC(C)(C)C)C(=O)O)c(N2CCC(C)(C)CC2)c1-c1ccc(OCCc2ccc(F)cc2)cc1` [Example 4, (S)-2-(tert-butoxy)-2-(4-(4,4-dimethylpiperidin-1-yl)-5-(4-(4-fluorophenethoxy)phenyl)-6-methyl-2-oxo-1,2-dihydropyridin-3-yl)acetic acid], for which the response was half-maximal at 8 nM (EC50).

`Cc1nc(C#N)c([C@H](OC(C)(C)C)C(=O)O)c(N2CCC(C)(C)CC2)c1-c1ccc(OCCc2ccc(F)cc2)cc1` [Example 5, (S)-2-(tert-Butoxy)-2-(2-cyano-4-(4,4-dimethylpiperidin-1-yl)-5-(4-(4-fluorophenethoxy)phenyl)-6-methylpyridin-3-yl)acetic acid] registered an EC50 of 7 nM.

`Cc1nc(C(N)=O)c([C@H](OC(C)(C)C)C(=O)O)c(N2CCC(C)(C)CC2)c1-c1ccc(OCCc2ccc(F)cc2)cc1` [Example 6, (S)-2-(tert-Butoxy)-2-(2-carbamoyl-4-(4,4-dimethylpiperidin-1-yl)-5-(4-(4-fluorophenethoxy)phenyl)-6-methylpyridin-3-yl)acetic acid] came in with an EC50 of 14 nM.

The compound `CC1(C)CCN(c2c(-c3ccc(OCCc4ccc(F)cc4)cc3)cnc(CF)c2[C@H](OC(C)(C)C)C(=O)O)CC1` [Example 7, (S)-2-(tert-Butoxy)-2-(4-(4,4-dimethylpiperidin-1-yl)-2-(fluoromethyl)-5-(4-(4-fluorophenethoxy)phenyl)pyridin-3-yl)acetic acid] came in with an EC50 of 2 nM.

Compound `CC1(C)CCN(c2c(-c3ccc(OCCc4ccc(F)cc4)cc3)cnc(CO)c2[C@H](OC(C)(C)C)C(=O)O)CC1` [Example 8, (S)-2-(tert-Butoxy)-2-(4-(4,4-dimethylpiperidin-1-yl)-5-(4-(4-fluorophenethoxy)phenyl)-2-(hydroxymethyl)pyridin-3-yl)acetic acid] registered an EC50 of 3 nM.

Take `Cc1nc(C(=O)NS(=O)(=O)C2CC2)c(-c2ccc(OCCc3ccc(F)cc3)cc2)c(N2CCC(C)(C)CC2)c1[C@H](OC(C)(C)C)C(=O)O` [Example 9, (S)-2-(tert-Butoxy)-2-(6-((cyclopropylsulfonyl)carbamoyl)-4-(4,4-dimethylpiperidin-1-yl)-5-(4-(4-fluorophenethoxy)phenyl)-2-methylpyridin-3-yl)acetic acid]: the EC50 is 380 nM.

With `Cc1nc(C(=O)N2CCS(=O)(=O)CC2)c(-c2ccc(OCCc3ccc(F)cc3)cc2)c(N2CCC(C)(C)CC2)c1[C@H](OC(C)(C)C)C(=O)O` [Example 10, (S)-2-(tert-Butoxy)-2-(4-(4,4-dimethylpiperidin-1-yl)-6-(1,1-dioxidothiomorpholine-4-carbonyl)-5-(4-(4-fluorophenethoxy)phenyl)-2-methylpyridin-3-yl)acetic acid], the EC50 turned out to be 31 nM.

In turn, `Cc1nc(C(=O)N2CCC(C)(C)CC2)c(-c2ccc(OCCc3ccc(F)cc3)cc2)c(N2CCC(C)(C)CC2)c1[C@H](OC(C)(C)C)C(=O)O` [Example 11, (S)-2-(tert-Butoxy)-2-(4-(4,4-dimethylpiperidin-1-yl)-6-(4,4-dimethylpiperidine-1-carbonyl)-5-(4-(4-fluorophenethoxy)phenyl)-2-methylpyridin-3-yl)acetic acid] came in with an EC50 of 4 nM. This EC50 lies about 7.8-fold lower than the previous one.

As for `Cc1nc(C(=O)N[C@H]2CC[C@H](C)CC2)c(-c2ccc(OCCc3ccc(F)cc3)cc2)c(N2CCC(C)(C)CC2)c1[C@H](OC(C)(C)C)C(=O)O` [Example 12, (S)-2-(tert-Butoxy)-2-(4-(4,4-dimethylpiperidin-1-yl)-5-(4-(4-fluorophenethoxy)phenyl)-2-methyl-6-(((1 r, 4S)-4-methylcyclohexyl)carbamoyl)pyridin-3-yl)acetic acid], the EC50 was 4 nM.

`Cc1nc(C(N)=O)c(-c2ccc(OCCc3ccc(F)cc3)cc2)c(N2CCC(C)(C)CC2)c1[C@H](OC(C)(C)C)C(=O)O` [Example 13, (S)-2-(tert-Butoxy)-2-(6-carbamoyl-4-(4,4-dimethylpiperidin-1-yl)-5-(4-(4-fluorophenethoxy)phenyl)-2-methylpyridin-3-yl)acetic acid]: the EC50 came out at 10 nM. This EC50 lies about 2.5-fold higher than the previous one.

The compound `Cc1ncc(-c2ncc(OCCc3ccc(F)cc3)cn2)c(N2CCC(C)(C)CC2)c1[C@H](OC(C)(C)C)C(=O)O` [Example 14, (S)-2-(tert-Butoxy)-2-(4-(4,4-dimethylpiperidin-1-yl)-5-(5-(4-fluorophenethoxy)pyrimidin-2-yl)-2-methylpyridin-3-yl)acetic acid] registered an EC50 of 2 nM.

The compound `COc1ccc(-c2cnc(C)c([C@H](OC(C)(C)C)C(=O)O)c2N2CCC(C)(C)CC2)nn1` [Example 15, (S)-2-(tert-Butoxy)-2-(4-(4,4-dimethylpiperidin-1-yl)-5-(6-methoxypyridazin-3-yl)-2-methylpyridin-3-yl)acetic acid] displayed an EC50 of 16 nM. Compared with the last compound, the EC50 is about 8-fold higher.

On to `Cc1ncc(-c2cnc(OCCc3ccc(F)cc3)cn2)c(N2CCC(C)(C)CC2)c1[C@H](OC(C)(C)C)C(=O)O` [Example 16, (S)-2-(tert-Butoxy)-2-(4-(4,4-dimethylpiperidin-1-yl)-5-(5-(4-fluorophenethoxy)pyrazin-2-yl)-2-methylpyridin-3-yl)acetic acid], for which the response was half-maximal at 2 nM (EC50).

Staying with this assay, now noted: MT-2 cells infected with NL-RLuc virus, 5 days of incubation, 10% FBS, at least 2 experiments.
With `Cc1nc(N)c(-c2ccc(OCCc3ccc(F)cc3)c(F)c2F)c(N2CCC(C)(C)CC2)c1[C@H](OC(C)(C)C)C(=O)O` (single isomer, unassigned) [Example 71], a half-maximal response (EC50) required 2 nM.

For `Cc1nc(C(C)O)c(-c2ccc(OCCc3ccc(F)cc3)c(F)c2)c(N2CCC(C)(C)CC2)c1[C@H](OC(C)(C)C)C(=O)O` (single isomer, unassigned) [Example 237], it took 3 nM to reach a half-maximal effect (EC50).

`Cc1nc(C(C)(C)O)c(-c2ccc(OCCc3ccc(F)cc3)c(F)c2)c(N2CCC(C)(C)CC2)c1[C@H](OC(C)(C)C)C(=O)O` (single isomer, unassigned) [Example 243] had an EC50 of 7 nM. This EC50 lies about 2.3-fold higher than the previous one.

In general, EC50 refers to the concentration giving half of the maximal effect. Higher therefore signals weaker potency.

These data come from patent US20200055839A1 (priority 2017, published 2020).
